Reference: patent publication US9513294B2, “Megastokes amino-triazolyl-BODIPY compounds and applications to live neuron staining and human serum albumin FA1 drug site probing” (National University of Singapore, priority 2012, dated 2016)
One block for each compound: values may come before it.

What was measured:
[1] = Absorbance and fluorescence emission spectra (SpectraMax M2); type: physicochemical; settings: for λmax Absorp. (nm) / λmax Emission (nm): MKCA compound library; for λmax Absorp. (nm) / λmax Abs. (nm): absorbance maximum; for λmax Emission (nm) / λmax Em. (nm): fluorescence emission maximum; for λmax Abs. (nm) / λmax Em. (nm): MKAC compound library
Procedure, shortened: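 Spectroscopic data, including quantum yields, were recorded with a SpectraMax M2 instrument and analysed in GraphPrism.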

[2] = Quantum yield measurements versus Acridine Yellow in EtOH; type: physicochemical; settings: for φ (%): quantum yield; for φ (quantum yield): excitation 460 nm
Procedure, shortened: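 Emission areas integrated over 510–700 nm were compared with Acridine Yellow in ethanol (Φ=0.47), all excited at 460 nm. The comparative equation was normalized to excitation-wavelength absorbance and solvent refractive index.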

SMILES: CC(=O)Nc1ccc(C2=C3C=CC(N4CCCCC4)=[N+]3[B-](F)(F)n3c2ccc3-n2cc(CCc3ccccc3)nn2)cc1 [BDCAC-19]
λmax Absorp. ([1]; BDCAC library, Table 3): 467 nm | λmax Emission ([1]; BDCAC library, Table 3): 580 nm | φ (quantum yield) ([2]; BDCAC library, Table 3): 0.9%

SMILES: CC(C)(C)c1cn(-c2ccc3n2[B-](F)(F)[N+]2=C(N4CCCCC4)C=CC2=C3c2ccc(NC(=O)CCl)cc2)nn1 [BDCCA-1]
λmax Absorp. ([1]; BDCCA library, Table 4): 468 nm | λmax Emission ([1]; BDCCA library, Table 4): 581 nm | φ (quantum yield) ([2]; BDCCA library, Table 4): 0.7%

SMILES: CC(=O)Nc1ccc(C2=C3C=CC(N4CCc5ccccc5C4)=[N+]3[B-](F)(F)n3c2ccc3-n2cc(CC(C)C)nn2)cc1 [MKAC66-43]
λmax Abs. (nm) [1]: 469 nm | λmax Em. (nm) [1]: 581 nm | φ (%) ([2]; MKAC compound library): 1.92%

SMILES: O=C(CCl)Nc1ccc(C2=C3C=CC(N4CCCCC4)=[N+]3[B-](F)(F)n3c2ccc3-n2cc(-c3ccc(-c4ccccc4)cc3)nn2)cc1 [BDCCA-23]
λmax Absorp. ([1]; BDCCA library, Table 4): 464 nm | λmax Emission ([1]; BDCCA library, Table 4): 575 nm | φ (quantum yield) ([2]; BDCCA library, Table 4): 1.2%

SMILES: CCCCCC(O)c1cn(-c2ccc3n2[B-](F)(F)[N+]2=C(N(C)Cc4ccccc4)C=CC2=C3c2ccc(N)cc2)nn1 (stereo not drawn) [MK195-69]
λmax Absorp. ([1]; MK library, Table 5): 476 nm | λmax Emission ([1]; MK library, Table 5): 591 nm | φ (quantum yield) ([2]; MK library, Table 5): 0.28%

SMILES: O=C(CCl)Nc1ccc(C2=C3C=CC(N4CCCCC4)=[N+]3[B-](F)(F)n3c2ccc3-n2cc(-c3ccc(OC(F)(F)F)cc3)nn2)cc1 [BDCCA-15]
λmax Absorp. ([1]; BDCCA library, Table 4): 462 nm | λmax Emission ([1]; BDCCA library, Table 4): 537 nm | φ (quantum yield) ([2]; BDCCA library, Table 4): 2.2%

SMILES: CCCc1cn(-c2ccc3n2[B-](F)(F)[N+]2=C(N4CCc5ccccc5C4)C=CC2=C3c2ccc(NC(C)=O)cc2)nn1 [MKAC66-48]
λmax Abs. (nm) [1]: 469 nm | λmax Em. (nm) [1]: 582 nm | φ (%) ([2]; MKAC compound library): 2.14%

SMILES: COc1ccc(OC)c(CNC2=[N+]3C(=C(c4ccc(NC(C)=O)cc4)c4ccc(-n5cc(CCc6ccccc6)nn5)n4[B-]3(F)F)C=C2)c1 [MKAC181-19]
λmax Abs. (nm) [1]: 464 nm | λmax Em. (nm) [1]: 561 nm | φ (%) ([2]; MKAC compound library): 14.0%

SMILES: CC(=O)Nc1ccc(C2=C3C=CC(N4CC(C)OC(C)C4)=[N+]3[B-](F)(F)n3c2ccc3-n2cc(C3CC3)nn2)cc1 (stereo not drawn) [MKAC20-4]
λmax Abs. (nm) [1]: 466 nm | λmax Em. (nm) [1]: 585 nm | φ (%) ([2]; MKAC compound library): 3.64%

SMILES: CN(Cc1ccccc1)Cc1cn(-c2ccc3n2[B-](F)(F)[N+]2=C(N4CCc5ccccc5C4)C=CC2=C3c2ccc(N)cc2)nn1 [MK66-18]
λmax Absorp. ([1]; MK library, Table 5): 478 nm | λmax Emission ([1]; MK library, Table 5): 587 nm | φ (quantum yield) ([2]; MK library, Table 5): 0.14%

SMILES: Nc1ccc(C2=C3C=CC(N4CCCCC4)=[N+]3[B-](F)(F)n3c2ccc3-n2cc(COc3ccccc3)nn2)cc1 [BDC-17]
λmax Absorp. ([1]; BDC library, Table 2): 474 nm | λmax Emission ([1]; BDC library, Table 2): 591 nm | φ (quantum yield) ([2]; BDC library, Table 2): 0.11%

SMILES: CC(=O)Nc1ccc(C2=C3C=CC(N(C)Cc4ccccc4)=[N+]3[B-](F)(F)n3c2ccc3-n2cc(CN(C)Cc3ccccc3)nn2)cc1 [MKAC195-18]
λmax Abs. (nm) [1]: 465 nm | λmax Em. (nm) [1]: 575 nm | φ (%) ([2]; MKAC compound library): 1.85%

SMILES: Cc1cccc(-c2cn(-c3ccc4n3[B-](F)(F)[N+]3=C(N5CCCCC5)C=CC3=C4c3ccc(N)cc3)nn2)c1 [BDC-45]
λmax Absorp. ([1]; BDC library, Table 2): 469 nm | λmax Emission ([1]; BDC library, Table 2): 556 nm | φ (quantum yield) ([2]; BDC library, Table 2): 0.42%

More lines, now with the values ahead:

λmax Absorp. (nm) [1]: 470 nm | λmax Emission (nm) [1]: 587 nm | φ (%) ([2]; MKCA compound library): 3.11%
SMILES: O=C(CCl)Nc1ccc(C2=C3C=CC(N4CCc5ccccc5C4)=[N+]3[B-](F)(F)n3c2ccc3-n2cc(C3CCCC3)nn2)cc1 [MKCA66-5]

λmax Absorp. (nm) [1]: 466 nm | λmax Emission (nm) [1]: 577 nm | φ (%) ([2]; MKCA compound library): 7.95%
SMILES: CCCC(C)c1cn(-c2ccc3n2[B-](F)(F)[N+]2=C(N(C)Cc4ccccc4)C=CC2=C3c2ccc(NC(=O)CCl)cc2)nn1 (stereo not drawn) [MKCA195-3]

λmax Absorp. (nm) [1]: 465 nm | λmax Emission (nm) [1]: 562 nm | φ (%) ([2]; MKCA compound library): 28.94%
SMILES: CCCc1cn(-c2ccc3n2[B-](F)(F)[N+]2=C(NCc4ccccc4C)C=CC2=C3c2ccc(NC(=O)CCl)cc2)nn1 [MKCA101-48]

λmax Abs. (nm) [1]: 467 nm | λmax Em. (nm) [1]: 560 nm | φ (%) ([2]; MKAC compound library): 18.26%
SMILES: CC(=O)Nc1ccc(C2=C3C=CC(NCc4cc(F)cc(F)c4)=[N+]3[B-](F)(F)n3c2ccc3-n2cc(CC(C)C)nn2)cc1 [MKAC412-43]

λmax Abs. (nm) [1]: 464 nm | λmax Em. (nm) [1]: 579 nm | φ (%) ([2]; MKAC compound library): 1.67%
SMILES: CC(=O)Nc1ccc(C2=C3C=CC(N(C)Cc4ccccc4)=[N+]3[B-](F)(F)n3c2ccc3-n2cc(CO)nn2)cc1 [MKAC195-70]

λmax Abs. (nm) [1]: 465 nm | λmax Em. (nm) [1]: 561 nm | φ (%) ([2]; MKAC compound library): 21.83%
SMILES: CC(=O)Nc1ccc(C2=C3C=CC(NCc4cc(F)cc(F)c4)=[N+]3[B-](F)(F)n3c2ccc3-n2cc(CN(C)Cc3ccccc3)nn2)cc1 [MKAC412-18]

λmax Abs. (nm) [1]: 467 nm | λmax Em. (nm) [1]: 560 nm | φ (%) ([2]; MKAC compound library): 3.467%
SMILES: CCCCCC(O)c1cn(-c2ccc3n2[B-](F)(F)[N+]2=C(N(C)Cc4ccccc4)C=CC2=C3c2ccc(NC(C)=O)cc2)nn1 (racemic) [MKAC195-69]
